Source: the kinase profiling compilation of Christmann-Franck et al. (2016)

Columns and labels:
Details in all cases: compound 10.0 µM
LIMK1 (human) = LIMK1 (human) (UniProt P53667)
MAPK8 (human) = MAPK8 (human) (UniProt P45983)
ALK (human) = ALK (human) (UniProt Q9UM73)
FGFR1 (human) = FGFR1 (human) (UniProt P11362)
PRKX (human) = PRKX (human) (UniProt P51817)
MARK4 (human) = MARK4 (human) (UniProt Q96L34)
SRPK3 (human) = SRPK3 (human) (UniProt Q9UPE1)
AURKB (human) = AURKB (human) (UniProt Q96GD4)
AXL (human) = AXL (human) (UniProt P30530)
STK16 (human) = STK16 (human) (UniProt O75716)
MAP3K5 (human) = MAP3K5 (human) (UniProt Q99683)
CDK9 CCNK (human) = CDK9 CCNK (human) (UniProt P50750+O75909)
SGK2 (human) = SGK2 (human) (UniProt Q9HBY8)
PRKCG (human) = PRKCG (human) (UniProt P05129)
CDK5 CDK5R1 p35 (human) = CDK5 CDK5R1 p35 (human) (UniProt Q00535+Q15078)
MAP3K2 (human) = MAP3K2 (human) (UniProt Q9Y2U5)
NLK (human) = NLK (human) (UniProt Q9UBE8)
IKBKB (human) = IKBKB (human) (UniProt O14920)
ZAP70 (human) = ZAP70 (human) (UniProt P43403)
CLK2 (human) = CLK2 (human) (UniProt P49760)
PRKCQ (human) = PRKCQ (human) (UniProt Q04759)
PBK (human) = PBK (human) (UniProt Q96KB5)
PRKG2 (human) = PRKG2 (human) (UniProt Q13237)
MAP3K3 (human) = MAP3K3 (human) (UniProt Q99759)
MAP4K2 (human) = MAP4K2 (human) (UniProt Q12851)
NTRK2 (human) = NTRK2 (human) (UniProt Q16620)
NEK7 (human) = NEK7 (human) (UniProt Q8TDX7)
PRKD2 (human) = PRKD2 (human) (UniProt Q9BZL6)
MAP2K2 (human) = MAP2K2 (human) (UniProt P36507)
ROCK2 (human) = ROCK2 (human) (UniProt O75116)
LYN (human) = LYN (human) (UniProt P07948)
PLK3 (human) = PLK3 (human) (UniProt Q9H4B4)
INSR (human) = INSR (human) (UniProt P06213)
MYO3B (human) = MYO3B (human) (UniProt Q8WXR4)
CDK6 CCND3 (human) = CDK6 CCND3 (human) (UniProt Q00534+P30281)
PDPK1 (human) = PDPK1 (human) (UniProt O15530)
RPS6KA5 KD1 KD2 (human) = RPS6KA5 KD1 KD2 (human) (UniProt O75582)
MAPK12 (human) = MAPK12 (human) (UniProt P53778)
MARK3 (human) = MARK3 (human) (UniProt P27448)
TSSK2 (human) = TSSK2 (human) (UniProt Q96PF2)
MAP3K14 (human) = MAP3K14 (human) (UniProt Q99558)
CAMK2G (human) = CAMK2G (human) (UniProt Q13555)
FGFR4 (human) = FGFR4 (human) (UniProt P22455)
EPHA4 (human) = EPHA4 (human) (UniProt P54764)

Sequence of FGFR1 (human) (P11362 whole entry, looked up): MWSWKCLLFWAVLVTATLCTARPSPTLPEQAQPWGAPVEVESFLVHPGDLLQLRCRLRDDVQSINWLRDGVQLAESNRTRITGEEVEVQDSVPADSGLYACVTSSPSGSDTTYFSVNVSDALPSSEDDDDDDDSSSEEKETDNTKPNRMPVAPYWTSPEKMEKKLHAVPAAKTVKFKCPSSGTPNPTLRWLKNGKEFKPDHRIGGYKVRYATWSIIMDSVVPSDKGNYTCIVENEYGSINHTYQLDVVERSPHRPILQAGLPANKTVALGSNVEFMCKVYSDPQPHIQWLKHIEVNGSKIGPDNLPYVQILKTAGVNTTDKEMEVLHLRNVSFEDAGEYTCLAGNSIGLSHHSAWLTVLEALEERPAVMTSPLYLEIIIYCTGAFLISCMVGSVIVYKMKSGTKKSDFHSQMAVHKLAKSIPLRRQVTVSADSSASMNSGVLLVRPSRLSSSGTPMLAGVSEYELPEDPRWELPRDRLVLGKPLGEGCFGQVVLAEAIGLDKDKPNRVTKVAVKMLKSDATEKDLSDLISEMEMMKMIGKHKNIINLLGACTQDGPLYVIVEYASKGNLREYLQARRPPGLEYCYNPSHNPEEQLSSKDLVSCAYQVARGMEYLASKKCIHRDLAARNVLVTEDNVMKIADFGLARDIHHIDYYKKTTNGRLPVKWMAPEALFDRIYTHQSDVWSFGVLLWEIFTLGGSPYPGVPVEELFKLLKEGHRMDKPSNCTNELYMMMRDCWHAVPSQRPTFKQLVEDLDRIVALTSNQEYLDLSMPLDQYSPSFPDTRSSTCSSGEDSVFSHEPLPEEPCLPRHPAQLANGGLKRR
Sequence of SGK2 (human) (Q9HBY8 whole entry, looked up): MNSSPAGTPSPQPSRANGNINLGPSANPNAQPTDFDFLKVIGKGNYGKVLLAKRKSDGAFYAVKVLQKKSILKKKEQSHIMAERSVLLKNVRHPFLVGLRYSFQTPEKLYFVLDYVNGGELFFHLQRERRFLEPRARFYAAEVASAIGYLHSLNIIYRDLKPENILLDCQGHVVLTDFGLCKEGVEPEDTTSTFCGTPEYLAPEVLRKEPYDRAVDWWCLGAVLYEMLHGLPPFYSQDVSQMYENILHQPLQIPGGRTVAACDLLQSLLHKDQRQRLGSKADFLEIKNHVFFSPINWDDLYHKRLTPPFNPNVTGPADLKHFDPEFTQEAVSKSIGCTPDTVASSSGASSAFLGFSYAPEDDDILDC
Sequence of FGFR4 (human) (P22455 whole entry, looked up): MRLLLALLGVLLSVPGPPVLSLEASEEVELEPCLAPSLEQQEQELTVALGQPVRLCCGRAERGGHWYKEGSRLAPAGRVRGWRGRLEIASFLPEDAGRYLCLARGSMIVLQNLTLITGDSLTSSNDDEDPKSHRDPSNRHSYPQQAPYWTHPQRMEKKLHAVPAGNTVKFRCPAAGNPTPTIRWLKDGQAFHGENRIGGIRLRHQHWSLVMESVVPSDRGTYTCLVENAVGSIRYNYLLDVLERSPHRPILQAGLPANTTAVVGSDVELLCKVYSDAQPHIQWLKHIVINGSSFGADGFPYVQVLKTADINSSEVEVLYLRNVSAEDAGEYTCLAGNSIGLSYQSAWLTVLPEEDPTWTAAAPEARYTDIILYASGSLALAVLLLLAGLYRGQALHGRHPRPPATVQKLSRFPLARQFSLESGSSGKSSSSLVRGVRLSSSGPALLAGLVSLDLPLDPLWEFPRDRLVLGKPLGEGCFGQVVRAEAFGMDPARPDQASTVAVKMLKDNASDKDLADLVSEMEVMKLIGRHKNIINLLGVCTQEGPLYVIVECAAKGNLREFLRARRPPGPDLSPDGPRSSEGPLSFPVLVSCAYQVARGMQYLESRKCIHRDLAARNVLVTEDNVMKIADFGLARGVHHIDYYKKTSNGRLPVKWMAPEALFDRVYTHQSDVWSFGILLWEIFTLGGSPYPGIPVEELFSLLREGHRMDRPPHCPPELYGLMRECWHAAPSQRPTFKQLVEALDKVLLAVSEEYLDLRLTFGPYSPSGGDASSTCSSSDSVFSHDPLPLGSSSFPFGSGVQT
Sequence of SRPK3 (human) (Q9UPE1 whole entry, looked up): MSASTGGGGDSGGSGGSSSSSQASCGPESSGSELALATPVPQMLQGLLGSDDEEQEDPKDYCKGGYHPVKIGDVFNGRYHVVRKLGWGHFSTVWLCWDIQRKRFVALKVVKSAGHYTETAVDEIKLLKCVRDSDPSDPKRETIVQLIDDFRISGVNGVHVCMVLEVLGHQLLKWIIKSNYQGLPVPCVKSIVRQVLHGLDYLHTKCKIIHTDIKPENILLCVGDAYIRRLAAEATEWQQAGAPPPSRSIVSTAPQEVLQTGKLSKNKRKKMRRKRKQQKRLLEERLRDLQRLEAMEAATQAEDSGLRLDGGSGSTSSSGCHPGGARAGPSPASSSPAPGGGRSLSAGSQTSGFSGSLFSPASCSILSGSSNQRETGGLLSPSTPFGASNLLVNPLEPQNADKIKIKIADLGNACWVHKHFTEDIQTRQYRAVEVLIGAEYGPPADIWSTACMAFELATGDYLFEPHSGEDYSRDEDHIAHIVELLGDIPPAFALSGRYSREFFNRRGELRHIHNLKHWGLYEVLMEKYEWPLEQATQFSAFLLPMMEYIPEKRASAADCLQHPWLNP
Sequence of ALK (human) (Q9UM73 whole entry, looked up): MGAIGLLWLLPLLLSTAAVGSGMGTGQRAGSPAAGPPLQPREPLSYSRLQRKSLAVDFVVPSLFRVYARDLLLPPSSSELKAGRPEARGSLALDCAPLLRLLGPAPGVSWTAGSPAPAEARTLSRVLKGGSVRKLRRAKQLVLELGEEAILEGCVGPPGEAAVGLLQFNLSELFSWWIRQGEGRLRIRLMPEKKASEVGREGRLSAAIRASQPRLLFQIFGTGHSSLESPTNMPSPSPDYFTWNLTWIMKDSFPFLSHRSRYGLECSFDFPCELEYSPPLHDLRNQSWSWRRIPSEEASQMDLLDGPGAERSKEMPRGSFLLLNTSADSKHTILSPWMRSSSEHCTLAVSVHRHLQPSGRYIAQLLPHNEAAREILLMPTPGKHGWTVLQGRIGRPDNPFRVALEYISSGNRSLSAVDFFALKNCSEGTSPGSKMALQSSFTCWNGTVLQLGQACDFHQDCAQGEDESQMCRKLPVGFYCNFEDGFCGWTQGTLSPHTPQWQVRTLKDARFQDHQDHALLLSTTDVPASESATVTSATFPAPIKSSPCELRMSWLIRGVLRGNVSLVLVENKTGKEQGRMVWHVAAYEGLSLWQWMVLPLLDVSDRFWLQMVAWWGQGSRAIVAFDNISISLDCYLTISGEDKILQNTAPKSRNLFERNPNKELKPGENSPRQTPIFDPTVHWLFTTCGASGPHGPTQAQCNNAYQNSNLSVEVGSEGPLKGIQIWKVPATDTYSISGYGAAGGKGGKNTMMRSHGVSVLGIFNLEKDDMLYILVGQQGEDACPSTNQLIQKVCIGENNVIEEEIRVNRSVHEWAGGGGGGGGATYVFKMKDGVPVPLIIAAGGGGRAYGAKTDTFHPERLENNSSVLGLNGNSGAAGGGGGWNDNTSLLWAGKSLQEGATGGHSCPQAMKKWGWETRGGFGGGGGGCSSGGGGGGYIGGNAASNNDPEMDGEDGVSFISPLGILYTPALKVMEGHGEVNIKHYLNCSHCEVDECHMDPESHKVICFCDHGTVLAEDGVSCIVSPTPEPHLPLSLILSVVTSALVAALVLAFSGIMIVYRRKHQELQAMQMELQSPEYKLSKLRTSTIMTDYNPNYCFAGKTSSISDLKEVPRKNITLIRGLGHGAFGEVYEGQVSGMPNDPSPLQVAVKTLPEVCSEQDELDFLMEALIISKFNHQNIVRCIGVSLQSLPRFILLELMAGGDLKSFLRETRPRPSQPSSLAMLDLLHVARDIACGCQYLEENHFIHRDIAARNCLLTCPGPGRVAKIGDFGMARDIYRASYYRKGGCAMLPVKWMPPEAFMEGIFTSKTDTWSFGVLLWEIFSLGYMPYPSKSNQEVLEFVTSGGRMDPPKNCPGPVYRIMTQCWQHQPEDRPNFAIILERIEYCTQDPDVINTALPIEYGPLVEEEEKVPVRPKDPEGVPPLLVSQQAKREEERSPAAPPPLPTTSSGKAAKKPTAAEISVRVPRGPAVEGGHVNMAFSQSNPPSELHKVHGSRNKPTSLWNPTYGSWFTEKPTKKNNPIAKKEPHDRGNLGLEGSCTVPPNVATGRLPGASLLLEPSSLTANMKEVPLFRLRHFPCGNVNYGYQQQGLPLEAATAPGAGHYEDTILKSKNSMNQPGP
Sequence of NEK7 (human) (Q8TDX7 whole entry, looked up): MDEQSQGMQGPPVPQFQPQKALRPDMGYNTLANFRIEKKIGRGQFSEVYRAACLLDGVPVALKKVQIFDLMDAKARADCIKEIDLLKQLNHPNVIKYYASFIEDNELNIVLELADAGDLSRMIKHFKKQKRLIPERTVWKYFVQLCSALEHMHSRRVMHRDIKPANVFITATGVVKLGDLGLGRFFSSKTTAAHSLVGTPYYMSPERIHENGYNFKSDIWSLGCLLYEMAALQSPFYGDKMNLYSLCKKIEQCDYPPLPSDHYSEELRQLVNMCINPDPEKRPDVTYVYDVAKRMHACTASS
Sequence of LYN (human) (P07948 whole entry, looked up): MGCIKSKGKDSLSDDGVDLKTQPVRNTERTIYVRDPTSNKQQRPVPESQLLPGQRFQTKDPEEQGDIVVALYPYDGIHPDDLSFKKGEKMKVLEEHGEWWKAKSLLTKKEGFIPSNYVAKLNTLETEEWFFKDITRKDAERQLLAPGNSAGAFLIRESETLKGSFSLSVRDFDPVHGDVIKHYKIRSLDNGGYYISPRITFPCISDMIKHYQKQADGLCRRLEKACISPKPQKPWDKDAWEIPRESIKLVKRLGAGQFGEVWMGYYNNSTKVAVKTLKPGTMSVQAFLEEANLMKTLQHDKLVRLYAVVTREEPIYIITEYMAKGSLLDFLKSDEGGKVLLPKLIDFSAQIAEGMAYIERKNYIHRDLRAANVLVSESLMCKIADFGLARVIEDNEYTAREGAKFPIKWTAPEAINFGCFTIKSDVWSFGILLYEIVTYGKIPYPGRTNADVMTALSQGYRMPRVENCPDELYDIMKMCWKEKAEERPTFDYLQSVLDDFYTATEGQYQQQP

residual activity (LIMK1 (human)): 99.5%
residual activity (MAPK8 (human)): 99.5%
residual activity (ALK (human)): 91.5%
residual activity (FGFR1 (human)): 84.5%
residual activity (PRKX (human)): 80.5%
residual activity (MARK4 (human)): 83%
residual activity (SRPK3 (human)): 98%
residual activity (AURKB (human)): 104%
residual activity (AXL (human)): 103%
residual activity (STK16 (human)): 102%
residual activity (MAP3K5 (human)): 102%
residual activity (CDK9 CCNK (human)): 96.5%
residual activity (SGK2 (human)): 105%
residual activity (PRKCG (human)): 91.5%
residual activity (CDK5 CDK5R1 p35 (human)): 103%
residual activity (MAP3K2 (human)): 100%
residual activity (NLK (human)): 95%
residual activity (IKBKB (human)): 102%
residual activity (ZAP70 (human)): 97.5%
residual activity (CLK2 (human)): 89.5%
residual activity (PRKCQ (human)): 99.5%
residual activity (PBK (human)): 94%
residual activity (PRKG2 (human)): 97%
residual activity (MAP3K3 (human)): 107%
residual activity (MAP4K2 (human)): 91.5%
residual activity (NTRK2 (human)): 99%
residual activity (NEK7 (human)): 99.5%
residual activity (PRKD2 (human)): 98%
residual activity (MAP2K2 (human)): 102%
residual activity (ROCK2 (human)): 98.5%
residual activity (LYN (human)): 104%
residual activity (PLK3 (human)): 106%
residual activity (INSR (human)): 95.5%
residual activity (MYO3B (human)): 92%
residual activity (CDK6 CCND3 (human)): 102%
residual activity (PDPK1 (human)): 100%
residual activity (RPS6KA5 KD1 KD2 (human)): 108%
residual activity (MAPK12 (human)): 97.5%
residual activity (MARK3 (human)): 110%
residual activity (TSSK2 (human)): 93.5%
residual activity (MAP3K14 (human)): 99%
residual activity (CAMK2G (human)): 99.5%
residual activity (FGFR4 (human)): 89%
residual activity (EPHA4 (human)): 92%
SMILES: CC[C@H](C)n1cc(C)c2c(C(=O)NCc3c(C)cc(C)[nH]c3=O)cc(-c3ccc(N4CCNCC4)nc3)cc21
